Test results reported in patent US12612412B2, “Antiviral heterocyclic compounds” (Enanta Pharmaceuticals, Inc., priority 2021, dated 2026).
Like-named read-outs stand apart in the source and are kept apart here.

How the values were obtained:
[1] = test system: genotype A, "Long" strain RSV; assay: RSV-A assay (CPE protection in Hep-2 cells, ATPlite readout); type: cell-based, Human respiratory syncytial virus (HRSV); conditions: genotype A “Long” strain RSV, MOI 0.1, CPE protection, read-out: Human RSV-A (“Long”)
Outline: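 Protection from RSV-induced cytopathic effect measured by ATP content (ATPlite) after 5-day culture. Infection used genotype A Long virus at MOI 0.1 on 8,000 Hep-2 cells per well, with compound serially diluted 2-fold; values are EC50.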

[2] = test system: HMPV clinical isolate TN/1501/A1; assay: HMPV antiviral assay Method-B (clinical isolate TN/1501/A1 in LLC-MK2 cells, ATP-Lite readout); type: cell-based, Human metapneumovirus (HMPV); conditions: human metapneumovirus, LLC-MK2, 144 h, hMPV WT1501 (clinical isolate TN/1501/A1), 6 days
Outline: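 LLC-MK2 cells infected in suspension with TN/1501/A1 at MOI 0.014 in serum-free medium with 2 μg/mL TPCK-trypsin (final), incubated 6 days at 37° C. Compounds tested in duplicate, 10-point 3-fold dilutions from 10 μM. Cell health read by ATP-Lite luminescence, normalised to virus-only and cells-only controls; EC50 by four-parameter logistic fit.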

[3] = human respiratory syncytial virus

Structure (SMILES) | EC50 [1, 3] [nM] | EC50 [2] [nM] | EC50 [1] [nM]
Cc1cnc2c(Cl)cc(C(=O)NC[C@](O)(c3cc4c(c(-c5ccc(F)c(F)c5F)n3)OC[C@]4(C)C(N)=O)C3CC3)cc2c1 [Example 531] | < 200 | < 500 | 
COc1cc(C(=O)NC[C@](O)(c2cc3c(c(-c4ccc(F)c(F)c4F)n2)OC[C@]3(C)C(N)=O)C2CC2)cc2cc(Br)cnc12 [Example 532] | < 200 | < 500 | 
COc1cc(C(=O)NC[C@](O)(c2cc3c(c(-c4ccc(F)c(F)c4Cl)n2)OC[C@]3(C)C(N)=O)C2CC2)cc2cn(C3CC3)nc12 [Example 533] | < 200 | < 500 | 
COc1cc(C(=O)NC[C@](O)(c2cc3c(c(-c4ccc(F)c(F)c4)n2)OC[C@]3(C)C(N)=O)C2CC2)cc2cn(C3CC3)nc12 [Example 534] | < 200 | < 500 | 
COc1cc(C(=O)NC[C@](O)(c2cc3c(c(-c4cc(Cl)ccc4F)n2)OC[C@]3(C)C(N)=O)C2CC2)cc2cn(C3CC3)nc12 [Example 536] | < 200 | < 500 | 
COc1cc(C(=O)NC[C@](O)(c2cc3c(c(-c4ccc(F)c(F)c4F)n2)OC[C@]3(C)C(N)=O)C2CC2)cc2cn(C3(F)CC3)nc12 [Example 537] | < 200 | < 500 | 
Cc1cnc2c(OC(F)F)cc(C(=O)NC[C@](O)(c3cc4c(c(-c5ccc6c(c5)OC(F)(F)O6)n3)OC[C@]4(C)C(N)=O)C3CC3)cc2c1 [Example 538] | < 200 | < 500 | 
Cc1cnc2c(Cl)cc(C(=O)NC[C@](O)(c3cc4c(c(-c5ccc6c(c5)OC(F)(F)O6)n3)OC[C@]4(C)C(N)=O)C3CC3)cc2c1 [Example 539] | < 200 | < 500 | 
Cc1nc2c(OC3CC3)cc(C(=O)NC[C@](O)(c3cc4c(c(-c5ccc6c(c5)OC(F)(F)O6)n3)OC[C@]4(C)C(N)=O)C3CC3)cc2cc1Cl [Example 540] | < 200 | < 500 | 
Cc1cnc2c(OCC(F)F)cc(C(=O)NC[C@](O)(c3cc4c(c(-c5ccc6c(c5)OC(F)(F)O6)n3)OC[C@]4(C)C(N)=O)C3CC3)cc2c1 [Example 541] | < 200 | < 500 | 
Cc1cnc2c(OC(F)(F)F)cc(C(=O)NC[C@](O)(c3cc4c(c(-c5ccc6c(c5)OC(F)(F)O6)n3)OC[C@]4(C)C(N)=O)C3CC3)cc2c1 [Example 542] | < 200 | < 500 | 
COc1cc(C(=O)NC[C@](O)(c2cc3c(c(-c4ccc5c(c4)OC(F)(F)O5)n2)OC[C@]3(C)C(N)=O)C2CC2)cc2cc(Br)cnc12 [Example 543] | < 200 | < 500 | 
C[C@]1(C(N)=O)COc2c1cc([C@@](O)(CNC(=O)c1cc(F)c3nn(C4CC4)cc3c1)C(F)(F)F)nc2-c1ccc2c(c1)OC(F)(F)O2 [Example 544] | < 200 | < 500 | 
C[C@]1(C(N)=O)COc2c1cc([C@@](O)(CNC(=O)c1cc(F)c3nn(C4CC4)cc3c1)C1CC1)nc2-c1ccc2c(c1)OC(F)(F)O2 [Example 545] | < 200 | < 500 | 
C[C@]1(C(N)=O)COc2c1cc([C@@](O)(CNC(=O)c1cc(Cl)c3nn(C4CC4)cc3c1)C(F)(F)F)nc2-c1ccc2c(c1)OC(F)(F)O2 [Example 546] | < 200 | < 500 | 
C[C@]1(C(N)=O)COc2c1cc([C@@](O)(CNC(=O)c1cc(Cl)c3nn(C4CC4)cc3c1)C1CC1)nc2-c1ccc2c(c1)OC(F)(F)O2 [Example 547] | < 200 | < 500 | 
C[C@]1(C(N)=O)COc2c1cc([C@@](O)(CNC(=O)c1cc(F)c3nc(C4CC4)cn3c1)C(F)(F)F)nc2-c1ccc2c(c1)OC(F)(F)O2 [Example 548] | < 200 | < 500 | 
C[C@]1(C(N)=O)COc2c1cc([C@@](O)(CNC(=O)c1cc(F)c3nc(C4CC4)cn3c1)C1CC1)nc2-c1ccc2c(c1)OC(F)(F)O2 [Example 549] | < 200 | < 500 | 
COc1cc(C(=O)NC[C@](O)(c2cc3c(c(-c4ccc(F)c(Cl)c4F)n2)OC[C@]3(C)C(N)=O)C(F)(F)F)cc2cn(C3(F)CC3)nc12 [Example 550] | < 200 | < 500 | 
COc1cc(C(=O)NC[C@](O)(c2cc3c(c(-c4ccc(F)c(Cl)c4F)n2)OC[C@]3(C)C(N)=O)C(F)(F)F)cc2cn(C(F)F)nc12 [Example 551] | < 200 | < 500 | 
COc1cc(C(=O)NC[C@](O)(c2cc3c(c(-c4ccc(F)c(Cl)c4F)n2)OC[C@]3(C)C(N)=O)C(F)(F)F)cc2cc(Cl)c(C)nc12 [Example 552] | < 200 | < 500 | 
Cc1cnc2c(OC(F)F)cc(C(=O)NC[C@](O)(c3cc4c(c(-c5ccc(F)c(Cl)c5F)n3)OC[C@]4(C)C(N)=O)C(F)(F)F)cc2c1 [Example 553] | < 200 | < 500 | 
COc1cc(C(=O)NC[C@](O)(c2cc3c(c(-c4ccc(F)c(Cl)c4F)n2)OC[C@]3(C)C(N)=O)C2CC2)cc2cn(C3CC3)nc12 [Example 554] | < 200 | < 500 | 

Structure (SMILES) | EC50 [1, 3] [nM] | EC50 [2] [nM] | EC50 [1] [nM]
COc1cc(C(=O)NC[C@](O)(c2cc3c(c(-c4ccc(F)c(Cl)c4F)n2)OC[C@]3(C)C(N)=O)C2CC2)cc2cn(C3(F)CC3)nc12 [Example 555] | < 200 | < 500 | 
COc1cc(C(=O)NC[C@](O)(c2cc3c(c(-c4ccc(F)c(Cl)c4F)n2)OC[C@]3(C)C(N)=O)C2CC2)cc2cn(C(F)F)nc12 [Example 556] | < 200 | < 500 | 
COc1cc(C(=O)NC[C@](O)(c2cc3c(c(-c4ccc(F)c(Cl)c4F)n2)OC[C@]3(C)C(N)=O)C2CC2)cc2cc(Cl)c(C)nc12 [Example 557] | < 200 | < 500 | 
Cc1cnc2c(OC(F)F)cc(C(=O)NC[C@](O)(c3cc4c(c(-c5ccc(F)c(Cl)c5F)n3)OC[C@]4(C)C(N)=O)C3CC3)cc2c1 [Example 558] | < 200 | < 500 | 
C[C@]1(C(N)=O)COc2c1cc([C@@](O)(CNC(=O)c1cc(Cl)c3nn(C4CC4)cc3c1)C1CC1)nc2-c1ccc(F)c(Cl)c1F [Example 559] | < 200 | < 500 | 
C[C@]1(C(N)=O)COc2c1cc([C@@](O)(CNC(=O)c1cc(OC3CC3)c3nc(C4CC4)cn3c1)C1CC1)nc2-c1ccc(F)c(Cl)c1F [Example 560] | < 200 | < 500 | 
COc1cc(C(=O)NC[C@](O)(c2cc3c(c(-c4ccc(F)c(Cl)c4F)n2)OC[C@]3(C)C(N)=O)C2CC2)cc2cc(Br)cnc12 [Example 561] | < 200 | < 500 | 
COc1cc(C(=O)NC[C@](O)(c2cc3c(c(-c4ccc(F)c(F)c4Cl)n2)OC[C@]3(C)C(N)=O)C2CC2)cc2cn(C3(F)CC3)nc12 [Example 562] | < 200 | < 500 | 
COc1cc(C(=O)NC[C@](O)(c2cc3c(c(-c4ccc(F)c(F)c4Cl)n2)OC[C@]3(C)C(N)=O)C2CC2)cc2cn(C(F)F)nc12 [Example 563] | < 200 | < 500 | 
C[C@]1(C(N)=O)COc2c1cc([C@@](O)(CNC(=O)c1cc(Cl)c3nn(C4CC4)cc3c1)C1CC1)nc2-c1ccc(F)c(F)c1Cl [Example 564] | < 200 | < 500 | 
COc1cc(C(=O)NC[C@](O)(c2cc3c(c(-c4ccc(F)c(F)c4Cl)n2)OC[C@]3(C)C(N)=O)C2CC2)cc2cc(Cl)c(C)nc12 [Example 565] | < 200 | < 500 | 
Cc1cnc2c(OC(F)F)cc(C(=O)NC[C@](O)(c3cc4c(c(-c5ccc(F)c(F)c5Cl)n3)OC[C@]4(C)C(N)=O)C3CC3)cc2c1 [Example 566] | < 200 | < 500 | 
C[C@]1(C(N)=O)COc2c1cc([C@@](O)(CNC(=O)c1cc(OC3CC3)c3nn(C(F)F)cc3c1)C(F)(F)F)nc2-c1ccc(F)c(Cl)c1F [Example 567] | < 200 | < 500 | 
C[C@]1(C(N)=O)COc2c1cc([C@@](O)(CNC(=O)c1cc(OC3CC3)c3nn(C(F)F)cc3c1)C1CC1)nc2-c1ccc(F)c(Cl)c1F [Example 568] | < 200 | < 500 | 
C[C@]1(C(N)=O)COc2c1cc([C@@](O)(CNC(=O)c1cc(OC3CC3)c3nn(C(F)F)cc3c1)C(F)(F)F)nc2-c1ccc2c(c1)OC(F)(F)O2 [Example 569] | < 200 | < 500 | 
C[C@]1(C(N)=O)COc2c1cc([C@@](O)(CNC(=O)c1cc(Cl)c3nn(C(F)F)cc3c1)C1CC1)nc2-c1ccc(F)c(Cl)c1F [Example 570] | < 200 | < 500 | 
C[C@]1(C(N)=O)COc2c1cc([C@@](O)(CNC(=O)c1cc(F)c3nn(C(F)F)cc3c1)C1CC1)nc2-c1ccc(F)c(Cl)c1F [Example 571] | < 200 | < 500 | 
COc1cc(C(=O)NC[C@](O)(c2cc3c(c(-c4ccc(F)c(Cl)c4F)n2)OC[C@]3(C)C(N)=O)C2CC2)cc2cc(C(F)(F)F)cnc12 [Example 572] | < 200 | < 500 | 
CC[C@]1(C(N)=O)COc2c1cc([C@@](O)(CNC(=O)c1cc(OC)c3nn(C4CC4)cc3c1)C(F)(F)F)nc2-c1ccc(F)cc1 [Example 573] |  | < 500 | < 200
COc1cc(C(=O)NC[C@](O)(c2cc3c(c(-c4ccc(F)c(Cl)c4)n2)OC[C@]3(C)C(N)=O)C2CC2)cc2cn(C(F)F)nc12 [Example 574] | < 200 | < 500 | 
COc1cc(C(=O)NC[C@](O)(c2cc3c(c(-c4ccc(F)c(Cl)c4)n2)OC[C@]3(C)C(N)=O)C2CC2)cc2cn(C3CC3)nc12 [Example 575] | < 200 | < 500 | 
COc1cc(C(=O)NC[C@](O)(c2cc3c(c(-c4ccc(C#N)c(Cl)c4)n2)OC[C@]3(C)C(N)=O)C(F)(F)F)cc2cn(C(F)F)nc12 [Example 576] | < 200 | > 500 | 
